BindingDB's records for doi:10.1016/j.chembiol.2003.08.010 (Brigham and Women's Hospital, 2003)
pIC50: −log10 of the molar value.

How the values were obtained:
[1] = target: T1, Ubiquitin carboxyl-terminal hydrolase isozyme L1 (Mus musculus, UniProt Q9R0P9); assay: Inhibition Activity Assay; details: pH 7.6; 25 °C
T1 sequence (Q9R0P9 whole entry): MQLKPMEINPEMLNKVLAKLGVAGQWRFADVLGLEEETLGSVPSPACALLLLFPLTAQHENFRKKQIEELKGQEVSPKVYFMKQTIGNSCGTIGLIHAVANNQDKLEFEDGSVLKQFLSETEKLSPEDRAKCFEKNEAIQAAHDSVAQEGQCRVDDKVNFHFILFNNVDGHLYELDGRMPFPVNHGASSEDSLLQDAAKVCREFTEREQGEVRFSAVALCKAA
From the text: (§1) Inhibition activity and selectivity for UCH-L1 and UCH-L3.

[2] = target: T2, Ubiquitin carboxyl-terminal hydrolase isozyme L3 (Mus musculus, UniProt Q9JKB1); assay: Inhibition Activity Assay; details: pH 7.6; 25 °C
T2 sequence (Q9JKB1 whole entry): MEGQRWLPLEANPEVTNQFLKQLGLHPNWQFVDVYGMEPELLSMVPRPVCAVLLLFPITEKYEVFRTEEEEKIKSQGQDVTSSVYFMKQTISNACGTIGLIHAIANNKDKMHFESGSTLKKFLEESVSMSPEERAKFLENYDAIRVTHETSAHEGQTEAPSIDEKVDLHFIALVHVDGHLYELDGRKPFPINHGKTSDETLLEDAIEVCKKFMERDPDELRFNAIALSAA
From the text: as §1

| pIC50 [1] | pIC50 [2] | SMILES |
| --- | --- | --- |
| 5.47 | 4.33 | Oc1ccc(Oc2ccc(Oc3ccc(O)cc3)cc2)cc1 [MLS001162917] |
| 4.80 | 4.62 | CC(C)(C)OC(=O)[C@H](Cc1ccccc1)NC(=O)c1[nH]cnc1C(=O)Nc1ccc(Cl)cc1 [SMR000465882] |
| 3.54 | 4.15 | CC1=CC(=O)c2ccccc2C1=O [Vitamin K3] |

Second part, the compound before the results:

| SMILES | pIC50 [1] | pIC50 [2] |
| --- | --- | --- |
| COc1ccc(NC(=O)c2[nH]cnc2C(=O)N[C@@H](CC(C)C)C(=O)OC(C)(C)C)cc1 [(2S)-2-[[4-[(4-methoxyphenyl)carbamoyl]-1H-imidazole-5-carbonyl]amino]-4-methyl-valeric acid tert-butyl ester] | 4.57 | 4.32 |
| CC(C)(C)OC(=O)NCCCC[C@H](NC(=O)c1[nH]cnc1C(=O)Nc1ccc(Cl)cc1)C(=O)OC(C)(C)C [(2S)-2-[[[4-[(4-chloroanilino)-oxomethyl]-1H-imidazol-5-yl]-oxomethyl]amino]-6-[[(2-methylpropan-2-yl)oxy-oxomethyl]amino]hexanoic acid tert-butyl ester] | 4.72 | 4.24 |
| Cc1ccc(NC(=O)c2[nH]cnc2C(=O)N[C@@H](CCCCNC(=O)OC(C)(C)C)C(=O)OC(C)(C)C)cc1 [(2S)-6-(tert-butoxycarbonylamino)-2-[[4-(p-tolylcarbamoyl)-1H-imidazole-5-carbonyl]amino]hexanoic acid tert-butyl ester] | 5.22 | 4.49 |
| CCC1=NN(C(=O)c2ccccc2O)C(O)(c2ccccc2)C1 (stereo not drawn) [(3-ethyl-5-hydroxy-5-phenyl-4H-pyrazol-1-yl)-(2-hydroxyphenyl)methanone] | 5.47 | 4.14 |
| CCCCn1c(=O)c(C(=O)NCc2ccccc2Cl)c(O)c2ccccc21 [MLS001202596] | 4.77 | 4.39 |
| Cc1nc(N=NC(C)c2ccc(Br)cc2)cc(N2CCCCC2)n1 (stereo not drawn) [N-[1-(4-bromophenyl)ethylideneamino]-2-methyl-6-piperidin-1-ylpyrimidin-4-amine] | 5.59 | 4.80 |
| COc1ccc(N(CC(=O)NCCSCc2cccc(Cl)c2)S(C)(=O)=O)cc1Cl [N-[2-[(3-chlorobenzyl)thio]ethyl]-2-(3-chloro-N-mesyl-4-methoxy-anilino)acetamide] | 5.89 | 4.66 |
| COc1ccc(-n2c(C=Cc3ccc(O)c(OC)c3)nc3ccccc3c2=O)cc1 [SMR000516541] | 4.92 | 4.28 |
| Cc1cccc(NC(=O)c2nc[nH]c2C(=O)N[C@@H](CC(C)C)C(=O)OCc2ccccc2)c1 [benzyl (2S)-4-methyl-2-[[4-[(3-methylphenyl)carbamoyl]-1H-imidazole-5-carbonyl]amino]pentanoate] | 4.92 | 4.48 |
| CCOC(=O)C1=C(C)N=c2s/c(=C\c3ccc(O)c([N+](=O)[O-])c3)c(=O)n2C1c1ccccc1OC (stereo not drawn) [ethyl 2-[(4-hydroxy-3-nitrophenyl)methylidene]-5-(2-methoxyphenyl)-7-methyl-3-oxo-5H-[1,3]thiazolo[3,2-a]pyrimidine-6-carboxylate] | 5.74 | 4.40 |
| Cc1cccc(NC(=O)c2nc[nH]c2C(=O)N[C@@H](Cc2ccccc2)C(=O)OC(C)(C)C)c1 [tert-butyl (2S)-2-[[4-[(3-methylphenyl)carbamoyl]-1H-imidazole-5-carbonyl]amino]-3-phenylpropanoate] | 4.92 | 4.28 |
